Assay results published in EP2417971A1, “Clomiphene for use in increasing the chances of pregnancy of women having a low ovarian reserve” (Nitzschke, Markus, priority 2010, dated 2012).
Where “and” joins values, the source holds several entries; their conditions need not be identical. Equal entries are not always repeated. Structures can show the parent of a compound that is named as a salt.

How the values were obtained:
[1] = tested on: women with low ovarian reserve; experiment: Case study: Clomiphene citrate from day 6 of the cycle to avoid pathological premature LH rise, followed by IVF; assay type: in vivo, human
Protocol: Women with low ovarian reserve take 50 mg oral Clomiphene Citrate every second day or 25 mg each day after the 6th day of the menstrual cycle until the follicle has reached a desired size of 18-20 mm. Subsequently ovulation is artificially triggered by the administration of GnRH (Gonadotropin releasing hormone) analogs, which is preferred, or human chorionic gonadotropin (HCG), 36-40 h after the administration of the ovulation inducing agent, the women had sexual intercourse. Alternatively, the ovum was obtained after 36 h and was fertilized in vitro in the lab.
A nulliparous person with 6 years of infertility had regular short cycles of 23 days. When they were younger, they had longer cycles of up to 29 days, but starting, their cycles became gradually shorter. […] When a vaginal ultrasound scan was performed that day, a follicle of 14 mm on the left ovary was found. […] Their spouse's semen analysis was normal. They had failed six cycles of gonadotrophins-IUI (intra-uterine inseminations) and 4 IVF attempts. The last two cycles had to be cancelled due to low response in a GnRH antagonist protocol with FSH injections of up to 450 IU per day. On day 7 of their cycle a hormonal assay and vaginal ultrasound scan were performed. […] The women came back two days later. The follicle was gone and an oral contraceptive pill (OCP) for 10 days was started in order to prevent follicle growth during luteal phase. Five days after the last OCP, menstrual bleeding started. No dominant follicle could be seen, serum estradiol was 32 pg/mL and FSH 14 IU/L.
The person was again examined on day 9 of their cycle. […] Since oocytes ovulated from follicles smaller than 16 mm are often of a poor quality and do seldom produce a pregnancy, it was refrained from trying to retrieve the egg this time. The person ovulated the next day.
The person was examined again on day 6 of their next cycle. They had 2 small follicles of 12mm and 11mm on their left ovary. Serum estradiol was 113 pg/mL, FSH 7.7 IU/L and LH 5.6 IU/L. In order to avoid another pathological premature LH rise on a small follicle this cycle, the person was treated with small doses of Clomiphene citrate, i.e. 50mg Clomiphene citrate on day 6, 8 and 10 of the cycle. On day 11 two follicles on the left ovarian was found with sizes of 19mm and 15mm. Serum estradiol was 621 pg/mL and LH […]. Ovulation induction with 0.2mg triptorelix was performed on the evening of the next day and an oocyte was retrieved 36 hours later. Two mature eggs could be retrieved, but only one oocyte could be fertilized by IVF. Vaginal progesterone treatment was started the day of the egg retrieval. The embryo was transferred at day 2. Two weeks later the pregnancy test was positive.

[2] = tested on: endometrium; design: species or system human; details: in vivo
Source text: Teramoto has therefore used Clomiphene, inter alia, to control the ovulation process in the course of an in vitro fertilization (IVF). To make use of both the stimulating and the inhibiting effect of Clomiphene, Teramoto et al had to administer Clomiphene right at the beginning of the menstrual cycle until the day of induction of ovulation, which is usually between the 10th and 12th day of said cycle. The stimulating effect occurs prior to the 6th cycle day, before a dominant follicle is selected, whereas the inhibiting effect starts on day six or seven after selection of the dominant follicle. However, as we observed, if Clomiphene is administered in the described manner, the growth of the endometrium is inhibited at the same time due to the anti-estrogenic effect of Clomiphene (blocking of the estrogen receptors) and thus the embryos should not be transferred in the same cycle, because implantation success rate is low. In order to increase the implantation success rate, the resulting embryos should be frozen and transferred in the next cycle where no Clomiphene medication is conducted.

| growth of the endometrium [2] | SMILES | oocytes fertilized by IVF ([1]; of the two mature eggs retrieved) | follicle size ([1]; person, 50mg Clomiphene citrate on day 6, 8 and 10 of the cycle, day 11, two follicles on the left ovary (12mm and 11mm on day 6)) | Serum estradiol ([1]; person, 50mg on day 6, 8 and 10 of the cycle, measured on day 11 (113 pg/mL on day 6)) | LH ([1]; person, 50mg on day 6, 8 and 10 of the cycle, measured on day 11 (5.6 IU/L on day 6)) | mature eggs retrieved ([1]; retrieval 36 hours after ovulation induction with 0.2mg triptorelix on the evening of day 12) | pregnancy test ([1]; two weeks after embryo transfer at day 2, same cycle) |
| --- | --- | --- | --- | --- | --- | --- | --- |
|  | CCN(CC)CCOc1ccc(C(=C(Cl)c2ccccc2)c2ccccc2)cc1 [Clomiphene citrate] | only one | 19 mm and 15 mm | 621 pg/mL | 7.4 IU/L | Two | positive |
| inhibited | CCN(CC)CCOc1ccc(C(=C(Cl)c2ccccc2)c2ccccc2)cc1 [Clomiphene] |  |  |  |  |  |  |
